# Experimental data published in PubChem BioAssay AID328 (DTP/NCI, 2004).
# Several values for one entry are separate records, joined by “and”; a condition that tells them apart may be missing. Equal entries are not always repeated. Toxic doses and inconclusive results are not listed.
# System: BDF1 mice, P388 leukemia ip, median survival T/C
# Assay: NCI In Vivo Anticancer Drug Screen. Data for tumor model P388 Leukemia (intraperitoneal) in B6D2F1 (BDF1) mice
# Conditions: endpoint: median survival time, higher = longer survival
# Summary of the method: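 Compound-treated tumour-bearing mice were compared with vehicle-treated controls. Survival was recorded, and the value is the treated-group measurement divided by the control-group measurement (T/C).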
# [1] = dose: 6.25 mg/kg/injection, schedule: Q01DX009 (ip), vehicle: saline
# [2] = dose: 12.5 mg/kg/injection, schedule: Q01DX009 (ip), vehicle: saline
# [3] = dose: 25.0 mg/kg/injection, schedule: Q01DX009 (ip), vehicle: saline
# [4] = dose: 50.0 mg/kg/injection, schedule: Q01DX009 (ip), vehicle: saline
# [5] = dose: 100.0 mg/kg/injection, schedule: Q01DX009 (ip), vehicle: saline with Tween-80
# [6] = dose: 200.0 mg/kg/injection, schedule: Q01DX009 (ip), vehicle: saline with Tween-80
# [7] = dose: 100.0 mg/kg/injection, schedule: Q01DX009 (ip), vehicle: saline
# [8] = dose: 200.0 mg/kg/injection, schedule: Q01DX009 (ip), vehicle: saline
# [9] = dose: 25.0 mg/kg/injection, schedule: Q01DX009 (ip), vehicle: Klucel (hydroxypropylcellulose) (HPC)
# [10] = dose: 50.0 mg/kg/injection, schedule: Q01DX009 (ip), vehicle: Klucel (hydroxypropylcellulose) (HPC)
# [11] = dose: 100.0 mg/kg/injection, schedule: Q01DX009 (ip), vehicle: Klucel (hydroxypropylcellulose) (HPC)
# [12] = dose: 6.25 mg/kg/injection, schedule: Q01DX009 (ip), vehicle: Klucel (hydroxypropylcellulose) (HPC)
# [13] = dose: 12.5 mg/kg/injection, schedule: Q01DX009 (ip), vehicle: Klucel (hydroxypropylcellulose) (HPC)
smiles,measurement,setting,value
COc1ccc(CN(C)CCN(C)CCN(C)Cc2ccc(OC)cc2)cc1,T/C,"dose: 3.12 mg/kg/injection, schedule: Q01DX009 (ip), vehicle: water",92 % of control
same,T/C,[1],102 % of control
same,T/C,"dose: 6.25 mg/kg/injection, schedule: Q01DX009 (ip), vehicle: water",108 % of control
same,T/C,[2],103 % of control
same,T/C,"dose: 12.5 mg/kg/injection, schedule: Q01DX009 (ip), vehicle: water",99 % of control
same,T/C,[3],93 % of control
same,T/C,"dose: 25.0 mg/kg/injection, schedule: Q01DX009 (ip), vehicle: water",100 % of control
same,T/C,"dose: 25.0 mg/kg/injection, schedule: Q04DX003 (ip), vehicle: water",90 % of control
same,T/C,[4],86 % of control
same,T/C,"dose: 50.0 mg/kg/injection, schedule: Q01DX009 (ip), vehicle: water",106 % of control
same,T/C,"dose: 50.0 mg/kg/injection, schedule: Q04DX003 (ip), vehicle: water",99 % of control
same,T/C,"dose: 100.0 mg/kg/injection, schedule: Q04DX003 (ip), vehicle: water",96 % of control
C=C(C)C(=O)Oc1ccc([N+](=O)[O-])cc1,T/C,"dose: 50.0 mg/kg/injection, schedule: Q01DX009 (ip), vehicle: saline with Tween-80",96 % of control
same,T/C,[5],113 % of control
same,T/C,[6],98 % of control
O=C(O)C(Cl)Cc1cnc[nH]1 (stereo not drawn),T/C,[4],97 % of control and 91 % of control
same,T/C,[7],107 % of control and 87 % of control
same,T/C,[8],103 % of control and 95 % of control
C/C1=C/CCCCCC1,T/C,[7],104 % of control
same,T/C,"dose: 100.0 mg/kg/injection, schedule: Q04DX003 (ip), vehicle: saline",95 % of control
same,T/C,[8],90 % of control
same,T/C,"dose: 200.0 mg/kg/injection, schedule: Q04DX003 (ip), vehicle: saline",100 % of control
same,T/C,"dose: 400.0 mg/kg/injection, schedule: Q01DX009 (ip), vehicle: saline",113 % of control
same,T/C,"dose: 400.0 mg/kg/injection, schedule: Q04DX003 (ip), vehicle: saline",95 % of control
COCCOC(C)C(=O)C(O)S(=O)(=O)O (stereo not drawn),T/C,"dose: 132.0 mg/kg/injection, schedule: Q01DX009 (ip), vehicle: saline",150 % of control
same,T/C,[8],155 % of control
same,T/C,"dose: 300.0 mg/kg/injection, schedule: Q01DX009 (ip), vehicle: saline",155 % of control
O=C(Cl)C1CC2c3ccccc3C1([N+](=O)[O-])c1ccccc12 (stereo not drawn),T/C,"dose: 100.0 mg/kg/injection, schedule: Q04DX003 (ip), vehicle: Klucel (hydroxypropylcellulose) (HPC)",104 % of control
same,T/C,"dose: 200.0 mg/kg/injection, schedule: Q04DX003 (ip), vehicle: Klucel (hydroxypropylcellulose) (HPC)",100 % of control
same,T/C,"dose: 400.0 mg/kg/injection, schedule: Q04DX003 (ip), vehicle: Klucel (hydroxypropylcellulose) (HPC)",113 % of control
CC1(C)CCC2(C)CC=C3OC(=O)CCC3(C)C2C1 (stereo not drawn),T/C,[5],118 % of control
same,T/C,"dose: 100.0 mg/kg/injection, schedule: Q04DX003 (ip), vehicle: saline sonified",100 % of control
same,T/C,[6],100 % of control
same,T/C,"dose: 200.0 mg/kg/injection, schedule: Q04DX003 (ip), vehicle: saline sonified",100 % of control
same,T/C,"dose: 400.0 mg/kg/injection, schedule: Q01DX009 (ip), vehicle: saline with Tween-80",109 % of control
same,T/C,"dose: 400.0 mg/kg/injection, schedule: Q04DX003 (ip), vehicle: saline sonified",95 % of control
O=C(O)CCCCc1ccc(CCCCC(=O)O)cc1,T/C,[9],104 % of control
same,T/C,[10],104 % of control
same,T/C,[11],90 % of control
same,T/C,"dose: 150.0 mg/kg/injection, schedule: Q04DX003 (ip), vehicle: Klucel (hydroxypropylcellulose) (HPC)",120 % of control
CC(=O)N(O)c1ccc(Cl)cc1,T/C,"dose: 25.0 mg/kg/injection, schedule: Q04DX002 (ip), vehicle: saline with Tween-80",91 % of control and 100 % of control
same,T/C,"dose: 50.0 mg/kg/injection, schedule: Q04DX002 (ip), vehicle: saline with Tween-80",104 % of control and 110 % of control
BrC1c2cccc3cccc(c23)C1Br (stereo not drawn),T/C,[5],150 % of control
same,T/C,[6],88 % of control
CCCCCCCC[N+](C)(C)CCSCC[N+](C)(C)CCCCCCCC,T/C,"dose: 12.5 mg/kg/injection, schedule: Q01DX009 (ip), vehicle: saline with Tween-80",109 % of control
CC[C@H](/C=C/[C@@H](C)[C@H]1CC[C@H]2[C@@H]3CC=C4C[C@@H](OC(=O)/C=C\C(=O)O)CC[C@]4(C)[C@H]3CC[C@]12C)C(C)C,T/C,"dose: 6.25 mg/kg/injection, schedule: Q01DX009 (ip), vehicle: other",120 % of control
same,T/C,"dose: 12.5 mg/kg/injection, schedule: Q01DX009 (ip), vehicle: other",105 % of control
same,T/C,"dose: 18.75 mg/kg/injection, schedule: Q04DX003 (ip), vehicle: other",100 % of control
same,T/C,"dose: 25.0 mg/kg/injection, schedule: Q01DX009 (ip), vehicle: other",100 % of control
same,T/C,"dose: 37.5 mg/kg/injection, schedule: Q04DX003 (ip), vehicle: other",95 % of control
same,T/C,"dose: 75.0 mg/kg/injection, schedule: Q04DX003 (ip), vehicle: other",104 % of control
Nc1cc(I)c2cccnc2c1O,T/C,[1],93 % of control and 115 % of control
same,T/C,[2],90 % of control and 99 % of control
same,T/C,[3],123 % of control
same,T/C,[4],117 % of control
same,T/C,[7],124 % of control
CCCCCCCCCCCCNCCCCCCCCCCCC,T/C,"dose: 1.0 mg/kg/injection, schedule: Q01DX010 (ip), vehicle: other",100 % of control
same,T/C,"dose: 2.0 mg/kg/injection, schedule: Q01DX010 (ip), vehicle: other",100 % of control
same,T/C,"dose: 3.0 mg/kg/injection, schedule: Q01DX010 (ip), vehicle: other",90 % of control
same,T/C,"dose: 3.12 mg/kg/injection, schedule: Q01DX009 (ip), vehicle: Klucel (hydroxypropylcellulose) (HPC)",100 % of control
same,T/C,"dose: 3.25 mg/kg/injection, schedule: Q01DX001 (ip), vehicle: Klucel (hydroxypropylcellulose) (HPC)",100 % of control
same,T/C,"dose: 4.0 mg/kg/injection, schedule: Q01DX010 (ip), vehicle: other",100 % of control
same,T/C,[12],90 % of control
same,T/C,"dose: 6.5 mg/kg/injection, schedule: Q01DX001 (ip), vehicle: Klucel (hydroxypropylcellulose) (HPC)",100 % of control
same,T/C,"dose: 8.0 mg/kg/injection, schedule: Q01DX010 (ip), vehicle: water",100 % of control
same,T/C,[13],95 % of control
same,T/C,"dose: 13.0 mg/kg/injection, schedule: Q01DX001 (ip), vehicle: Klucel (hydroxypropylcellulose) (HPC)",100 % of control
same,T/C,"dose: 18.0 mg/kg/injection, schedule: Q01DX009 (ip), vehicle: Klucel (hydroxypropylcellulose) (HPC)",95 % of control
same,T/C,"dose: 60.0 mg/kg/injection, schedule: Q01DX001 (ip), vehicle: Klucel (hydroxypropylcellulose) (HPC)",100 % of control
same,T/C,"dose: 90.0 mg/kg/injection, schedule: Q01DX001 (ip), vehicle: Klucel (hydroxypropylcellulose) (HPC)",100 % of control
same,T/C,"dose: 130.0 mg/kg/injection, schedule: Q01DX001 (ip), vehicle: Klucel (hydroxypropylcellulose) (HPC)",105 % of control
same,T/C,"dose: 135.0 mg/kg/injection, schedule: Q01DX001 (ip), vehicle: Klucel (hydroxypropylcellulose) (HPC)",104 % of control
same,T/C,"dose: 200.0 mg/kg/injection, schedule: Q01DX001 (ip), vehicle: Klucel (hydroxypropylcellulose) (HPC)",115 % of control
same,T/C,"dose: 300.0 mg/kg/injection, schedule: Q01DX001 (ip), vehicle: Klucel (hydroxypropylcellulose) (HPC)",110 % of control
same,T/C,"dose: 305.0 mg/kg/injection, schedule: Q01DX001 (ip), vehicle: Klucel (hydroxypropylcellulose) (HPC)",109 % of control
Nc1c(Cl)c(Cl)nc(C(=O)O)c1Cl,T/C,"dose: 2.5 mg/kg/injection, schedule: Q01DX009 (ip), vehicle: saline",102 % of control
same,T/C,"dose: 5.0 mg/kg/injection, schedule: Q01DX009 (ip), vehicle: saline",106 % of control
same,T/C,[12],104 % of control
same,T/C,"dose: 10.0 mg/kg/injection, schedule: Q01DX009 (ip), vehicle: saline",113 % of control
same,T/C,[13],95 % of control
same,T/C,"dose: 20.0 mg/kg/injection, schedule: Q01DX009 (ip), vehicle: saline",115 % of control
same,T/C,[9],104 % of control
same,T/C,"dose: 40.0 mg/kg/injection, schedule: Q01DX009 (ip), vehicle: saline",106 % of control
same,T/C,[10],106 % of control
same,T/C,[11],98 % of control
CN1CCC2=C(C1)C(N1CCCCC1)CS(=O)(=O)O2 (stereo not drawn),T/C,"dose: 25.0 mg/kg/injection, schedule: Q04DX002 (ip), vehicle: saline",93 % of control
same,T/C,"dose: 50.0 mg/kg/injection, schedule: Q04DX002 (ip), vehicle: saline",97 % of control
same,T/C,"dose: 100.0 mg/kg/injection, schedule: Q04DX002 (ip), vehicle: saline with Tween-80",93 % of control
